Measurements published in patent publication US10105425B2, “Isolated donor MHC-derived peptide and uses thereof” (INSERM (INSTITUT NATIONAL DE LA SANTÉ ET DE LA RECHERCHE …, priority 2014, dated 2018).

Legend:
cardiac grafts = test: Morphometric analysis of cardiac grafts (chronic rejection); assay type: in vivo, rat; conditions: long-term surviving Du51-treated recipients
Protocol: The upper third of the graft was fixed in paraformaldehyde and embedded in paraffin. Five μm coronal sections were stained with hematoxylin-eosine-safron. Tissues were analyzed by a pathologist (K.R.) blinded to the groups and chronic rejection was evaluated as previously described (63).

[1] = test system: donor-specific alloantibodies; test: Donor specific alloantibody detection by cytofluorimetry; assay type: in vivo, rat; conditions: long-term surviving Du51-treated recipients vs untreated or early rejecting
Protocol: Alloantibodies were analyzed by cytofluorimetry as described elsewhere (28). Briefly, after digestion by collagenase D and red blood cell lysis, allogeneic spleen cells were incubated with diluted (1/8) heat-inactivated serum, and then with FITC-conjugated goat anti-rat IgG antibodies (H+L chain specific) (Jackson Laboratories), a mouse anti-rat IgG1 MAb (MCA 194, Serotec), IgG2a (MCA 278, Serotec) or IgG2b (MCA 195, Serotec). […] Cells were analyzed using a FACS Canto II cytofluorimeter (BD Biosciences, Mountain View, Calif.) and the results were expressed as mean channel fluorescence for each serum.

[2] = test system: CD4^+ and CD8^+ T cells isolated from rejected untreated animals; conditions: unmodified LEW.1A recipients, LEW.1W into LEW.1A; cited from earlier work
CD8^+CD40Ig Tregs = test: MLR coculture: CD25 activation of CD8+CD40Ig Tregs with syngeneic pDCs and allogeneic peptides; assay type: cell-based, rat; conditions: for upregulation of CD25 expression, fold vs. no peptide: 6 days culture, matured syngeneic pDCs, 120 μg/ml peptide
Protocol: (§1) For MLR coculture assays, pDCs from LEW.1A naive rats (1.25×10^4 cells), syngeneic CD8^+CD40Ig Tregs (5×10^4 cells) and 120 μg/ml of allogeneic peptides were plated in triplicate in 200 μl of complete RPMI-1640 medium in round-bottom 96 wells plates for 6 days at 37° C., 5% CO2. pDCs were matured with 0.5 μM of CpG ODN 1826.
(§2) Proliferation of CFSE-labeled naive CD4^+CD25^− T cells and phenotype of CD8^+CD45RC^low Tregs were analyzed by flow cytometry on a FACSCanto II cytometer (BD Biosciences, Mountain View, Calif.) after gating on TCR^+CD4^+ cells or TCR^+CD8^+ cells among live cells (DAPI negative).
For extracellular staining, cells were stained with the following mAbs: anti-TCRαβ (R73, Alexa Fluor 647-conjugated), anti-CD8α (OX8, PE-Cy7-conjugated, ebiosciences), anti-CD4 (W3.25, PE-Cy7-conjugated), anti-CD45RC (OX22, FITC-conjugated), anti-CD28 (JJ319, biotin-labeled), anti-CD71 (OX26, biotin-labeled), anti-mouse Vb11 (KT11, biotin-labeled, AbD Serotec) anti-CD25 (OX39, biotin-labeled) and anti-MHC-II (OX6, biotin-labeled).
(§3) All biotinylated mAbs were visualized using Streptavidin-PerCP.Cy5.5 (BD Biosciences). A FACSCanto II cytofluorimeter (BD Biosciences, Mountain View, Calif.) was used to measure fluorescence, and data were analyzed using FlowJo software (Tree Star, Inc. USA, version 7.6.5). Cells were first gated by their morphology and dead cells excluded by selecting DAPI negative viable cells.

CD8^+CD45RC^low Tregs = test: Spleen cell populations by flow cytometry after peptide treatment; assay type: in vivo, rat; conditions: long-term surviving Du51-treated recipients
Protocol: as §3
Tetramerization of RT1.A^a/Du51 was performed at room temperature by addition of streptavidin-PE (Jackson ImmunoResearch) or streptavidin-APC (BD Biosciences) at a 4:1-molar ratio, in four equal aliquots added at 15-min intervals. Likewise, the control tetramer RT1.A^a/MTF-E (ILFPSSERLISNR) was conjugated to streptavidin-BV421 (Biolegend) and represented 1.6+/−0.7% of non-specific staining among Du51-specific cells. These three reagents were mixed and added to plated cells at 10 μg/mL for 1 hour at 4° C. Cells were further stained for CD8 and CD45RC and fluorescence was analyzed on a FACSCanto II cytometer (BD Biosciences, Mountain View, Calif.). Cells were first gated by their morphology and dead cells excluded by selecting DAPI negative cells.

[3] = test system: heart allograft in irradiated LEW.1A recipients; test: Adoptive transfer of splenocytes from Du51-treated long-surviving recipients
Excerpt: Total splenocytes (1.5·10^8 cells) were adoptively transferred i.v. the day before heart transplantation into naive LEW-1A recipients that had received 4.5 Gy of whole-body irradiation the same day. Recipients received splenocytes from Du51-treated rats (defined as 1st spl-transferred) or from naive rats (naive spl-transferred) or no cells (untreated irradiated).

[4] = test system: heart allograft in LEW.1A recipients; test: Cardiac allotransplantation with in vivo peptide treatment; design: species or system rat; conditions: for allograft survival: five i.v injections of 500 μg peptide, LEW.1W into LEW.1A, n=4
Protocol: Allotransplantations of heart were performed between whole MHC incompatible LEW.1W (RT1.A^u as donors) and LEW.1A (RT1.A^a as recipients) male rats as previously described (5). The experiments were approved by the regional ethical committee for animal experimentation.
16-mer peptides were dissolved in 0.4% DMSO/PBS before injection. For the first protocol, single doses of peptide (500 μg/injection) were injected i.v at different time points before and after transplantation at day −6, −3, 0 +3 and +7 into grafted LEW.1A recipients. In the second protocol, mini osmotic pumps (ALZET, Cupertino, Calif., USA) were implanted intraperitoneally (i.p) in recipients and delivered continuously either 20.83 or 41.66 μg/hour of 16-mer peptides for 14 days. A first pump was implanted on day −7 before transplantation and was replaced by a second one at day +7, allowing delivery of 14 or 28 mg of peptide per animal for 28 consecutive days. A depleting anti-CD8α mAb (OX8, IgG1, 3 mg/kg) or an anti-MHC class Ia and Ib mAb (OX18, 3 mg/kg) were injected i.p. twice a week from day −7 until rejection. Allografts were monitored daily by palpation and allograft rejection was defined as complete cessation of palpable heart beat.

CD4^+CD25^− T cells = test: Direct MLR suppressive assay (CFSE proliferation); assay type: cell-based, rat
Protocol: For direct MLR suppressive assays, sorted CFSE-labeled CD4^+CD25^− T cells from LEW.1A origin (5×10^4 cells) and allogeneic pDCs isolated from donor LEW.1W animals (1.25×10^4 cells) were plated in triplicate for 6 days in a final volume of 200 μl of completed RPMI-1640 medium in round-bottom 96 wells plates with FACS-sorted freshly purified naive CD8^+CD45RC^low Treg cells, peptide-expanded CD8^+CD40Ig Treg cells (5×10^4 cells), Du51 tetramer^+ or ^− CD8^+CD40Ig Tregs. For indirect MLR suppressive assay, splenocytes isolated from donor LEW.1W animals were frozen-thawed to induce apoptosis. Apoptotic cells were then cultured overnight with pDCs isolated from recipient LEW.1A animals (8:1 ratio) at 0.65×10^6 pDCs/mL. Alloantigens-loaded pDCs were finally washed and plated as described before for the direct MLR.
as §2

[5] = test system: CD8^+CD40Ig Tregs and pDCs; test: Cytokine ELISA in coculture supernatants after peptide stimulation; assay type: cell-based, rat; conditions: 6 days peptide stimulation with pDCs, supernatant
Protocol: as §1
IFNγ, IL-10 were measured in coculture supernatants using ELISA from BD Biosciences OptEIA, IL-12 and TGFβ using ELISA from Invitrogen and R&D System respectively.

[6] = after 6 days of peptide stimulation

NREEYARFDSDVGEYR (Synthetic Dominant peptide Du51)
signs of chronic rejection in graft (cardiac grafts): no signs of chronic rejection
total IgG, IgG1, IgG2a and IgG2b alloantibodies production [1]: total inhibition
involvement in acute rejection of grafts [2]: not involved in acute rejection
upregulation of CD25 expression, fold vs. no peptide (CD8^+CD40Ig Tregs): 2.07±0.18 fold
CD28 expression (CD8^+CD40Ig Tregs; [6]): upregulation
CD71 expression (CD8^+CD40Ig Tregs; [6]): upregulation
Foxp3 expression (CD8^+CD40Ig Tregs; [6]): no modification
MHC class II expression (CD8^+CD40Ig Tregs; [6]): upregulation
percentage and absolute number of total CD8+ T cells, in particular CD8+CD45RClow Tregs in spleen (CD8^+CD45RC^low Tregs): trend for an increase
tetramer-positive Du51-specific Tregs in spleen (CD8^+CD45RC^low Tregs): trend for an increase
recipients with significant prolongation of allograft survival ([3]; 150·10^6 splenocytes from recipients treated with 1 mg/day Du51, irradiated secondary recipients): 50%
anatomopathological status of graft ([3]; first adoptively transferred long term recipients): complete absence of vascular lesions and obstructions
total IgG, IgG1 and IgG2b alloantibodies production ([3]; first adoptively transferred long-term recipients vs untreated): total inhibition
allograft survival [4]: 9.5 days
indefinite allograft survival ([4]; i.p. mini-osmotic pumps 20.8 μg peptide per hour for 28 days from day -7): 25%
indefinite allograft survival, recipients ([4]; osmotic pump 41.6 μg peptide per hour, LEW.1W donor hearts): 80%
rejection of Brown Norway (BN) third party grafts, day after transplantation ([4]; osmotic pump 41.6 μg per hour, BN/LEW.1A): 7 days
ex vivo suppressive activity of peptide-induced CD8+CD45RClow Tregs (CD4^+CD25^− T cells; Tregs from Du51-treated recipients): efficiently inhibit effector CD4^+ T cell proliferation
proliferation of effector T cells with peptide-stimulated Tregs (CD4^+CD25^− T cells; Tregs stimulated 6 days with peptide, compared to non-activating peptide): significant inhibition
IFNγ expression [5]: significant increased expression
IL-10 expression [5]: no modification
IL-12 production [5]: decreased
TGFβ expression [5]: no modification

REEYARFDSDVGEYR (Synthetic 15-mer peptide 51-18)
upregulation of CD25 expression, fold vs. no peptide (CD8^+CD40Ig Tregs): 2.04±0.3 fold
activation / recognition by CD8+CD40Ig Tregs (CD25), in words (CD8^+CD40Ig Tregs; coculture with matured syngeneic pDCs, 6 days): not significantly different from that induced by Du51

YLRYDSDVGEYRAVTE [Bu31, sub-dominant peptide from donor MHC class II RT1.B^u]
upregulation of CD25 expression, fold vs. no peptide (CD8^+CD40Ig Tregs): 1.67±0.09 fold
allograft survival [4]: 11 days
